Each structure is given as a SMILES string.

Data on 39 molecules can be found in BindingDB's records for doi:10.7270/Q2F769WQ (University of Pittsburgh, 2007).

The assay concerns the target T1, Dual specificity protein phosphatase 1 (Homo sapiens, UniProt P28562).
T1 sequence (P28562 whole entry): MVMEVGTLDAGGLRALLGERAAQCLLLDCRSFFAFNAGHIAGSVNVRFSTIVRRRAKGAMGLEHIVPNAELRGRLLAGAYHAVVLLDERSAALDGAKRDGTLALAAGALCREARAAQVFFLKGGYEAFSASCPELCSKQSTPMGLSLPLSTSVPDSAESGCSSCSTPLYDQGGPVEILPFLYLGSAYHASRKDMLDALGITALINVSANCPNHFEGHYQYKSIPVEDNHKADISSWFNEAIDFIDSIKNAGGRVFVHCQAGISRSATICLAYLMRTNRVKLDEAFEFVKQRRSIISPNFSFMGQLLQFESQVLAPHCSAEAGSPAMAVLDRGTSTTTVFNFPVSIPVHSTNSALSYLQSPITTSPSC
The experiment in a line: MKP-1 phosphatase inhibitor potency, dose response, biochemical, in vitro, confirmation (AID 551). The settings on record: pH 7; 22 °C.
One may read the IC50 as the concentration at which inhibition is half-maximal. Low readings indicate inhibition by little substance, high ones a need for much substance. `CCn1c(SCC(=O)Nc2nc3ccc(OC)cc3s2)nc2c1c(=O)n(C)c(=O)n2C` [2-(7-Ethyl-1,3-dimethyl-2,6-dioxo-2,3,6,7-tetrahydro-1H-purin-8-ylsulfanyl)-N-(6-methoxy-benzothiazol-2-yl)-acetamide] had an IC50 of 18.2 µM. With `Cc1cccc(NC(=O)c2cc(NC(=O)C3CCCCC3C(=O)O)ccc2N2CCCCC2)c1` (centres undefined) [2-({[3-{[(3-methylphenyl)amino]carbonyl}-4-(1-piperidinyl)phenyl]amino}carbonyl)cyclohexanecarboxylic acid], half-maximal inhibition (IC50) was put at 49.2 µM. With `Cc1ccc(Nc2nc(CSc3nnnn3-c3ccccc3)cc(=O)[nH]2)cc1` [2-[(4-methylphenyl)amino]-6-{[(1-phenyl-1H-tetrazol-5-yl)thio]methyl}-4(3H)-pyrimidinone], the IC50 is > 50 µM. Consider `O=C(CSc1nc2ccccc2c(=O)[nH]1)Nc1ccc(S(=O)(=O)N2CCCC2)cc1` [2-[(4-oxo-1H-quinazolin-2-yl)sulfanyl]-N-(4-pyrrolidin-1-ylsulfonylphenyl)acetamide], for which the IC50 was > 50 µM. In the case of `Cc1ccc(/C=C/C2=Cc3c(sc(NC(=O)CSc4nnc(N)[nH]4)c3C#N)C(C)(C)C2)o1` [2-[(5-azanyl-1H-1,2,4-triazol-3-yl)sulfanyl]-N-[3-cyano-7,7-dimethyl-5-[(E)-2-(5-methylfuran-2-yl)ethenyl]-6H-1-benzothiophen-2-yl]ethanamide] it was 9.38 µM; in that of `CCOc1ccc2nc(Nc3nc4c(c(=O)[nH]3)CCC4)nc(C)c2c1` [2-[(6-ethoxy-4-methylquinazolin-2-yl)amino]-1,5,6,7-tetrahydrocyclopenta[d]pyrimidin-4-one], > 50 µM; in that of `CCCCNC(=O)c1c(N)n(CCCOC)c2nc3ccccc3nc12` [2-amino-N-butyl-1-(3-methoxypropyl)-3-pyrrolo[3,2-b]quinoxalinecarboxamide], 26.2 µM.

Consider `C=CCn1c(NC(=O)c2ccccc2Cl)c(C#N)c2nc3ccccc3nc21` [2-chloro-N-(3-cyano-1-prop-2-enyl-2-pyrrolo[3,2-b]quinoxalinyl)benzamide], for which the IC50 is > 50 µM. `Cc1cccc(N2CCN(C(=O)c3cc4c(=O)[nH]c5ccccc5c4n3C)CC2)c1C` [2-{[4-(2,3-dimethylphenyl)piperazin-1-yl]carbonyl}-1-methyl-1,5-dihydro-4H-pyrrolo[3,2-c]quinolin-4-one]: the IC50 was > 50 µM. For the molecule `COc1ccc(C(=O)CSc2nnc(CNC(=O)c3ccc(OC)c(OC)c3)n2C)cc1` [3,4-dimethoxy-N-[(5-{[2-(4-methoxyphenyl)-2-oxoethyl]thio}-4-methyl-4H-1,2,4-triazol-3-yl)methyl]benzamide], the IC50 is > 50 µM.

As to `CCCn1nnc(NC(=O)c2cc(Br)cc(Br)c2OC)n1` [3,5-bis(bromanyl)-2-methoxy-N-(2-propyl-1,2,3,4-tetrazol-5-yl)benzamide], the 50% inhibitory concentration (IC50) was > 50 µM.

With `O=c1c2cc(N3CCOCC3)ccc2[nH]c(=S)n1Cc1ccco1` [3-(2-furanylmethyl)-6-(4-morpholinyl)-2-sulfanylidene-1H-quinazolin-4-one], the IC50 was > 50 µM. In the case of `CC1CCCCC1NC(=O)CCn1c(=O)oc2ccccc21` (centres undefined) [3-(2-keto-1,3-benzoxazol-3-yl)-N-(2-methylcyclohexyl)propionamide], the IC50 was > 50 µM. In the case of `N#Cc1c(N)sc(=S)c2c1CCN(Cc1ccccc1)C2` [3-Amino-7-benzyl-1-thioxo-5,6,7,8-tetrahydro-1H-thiopyrano[3,4-c]pyridine-4-carbonitrile] it was 1.13 µM; in that of `O=C1C=C(NCc2ccc(Cl)c(Cl)c2)CC1` [3-[(3,4-dichlorobenzyl)amino]cyclopent-2-en-1-one], > 50 µM; in that of `CCCSc1nnc(NC(=O)c2sc3nc(-c4cccs4)ccc3c2N)s1` [3-amino-N-(5-propylsulfanyl-1,3,4-thiadiazol-2-yl)-6-thiophen-2-ylthieno[2,3-b]pyridine-2-carboxamide], 12.4 µM. Consider `O=C(c1cccn2c(=O)c3ccc(Cl)cc3nc12)N1CCN(Cc2ccc3c(c2)OCO3)CC1` [3-chloro-6-(4-piperonylpiperazine-1-carbonyl)pyrido[2,1-b]quinazolin-11-one], for which the IC50 was > 50 µM.

Turning to `O=C1Nc2ccccc2SC(c2ccccc2)C1O` (centres undefined) [3-hydroxy-2-phenyl-2,3-dihydro-1,5-benzothiazepin-4(5H)-one], the midpoint of inhibition, the IC50, lay at 20.1 µM. Take `CCOC(=O)CC(=O)CSc1nnc2sc3ccccc3n12` [3-keto-4-([1,2,4]triazolo[3,4-b][1,3]benzothiazol-1-ylthio)butyric acid ethyl ester]: the IC50 is > 50 µM. In the case of `COC(=O)CCCc1nc2ccccc2s1` [4-(1,3-benzothiazol-2-yl)butanoic acid methyl ester], the half-inhibitory concentration (IC50) is > 50 µM. Consider `Cc1cccc(N2CCN(S(=O)(=O)c3ccc4c(c3)CCN4C(=O)CCC(=O)O)CC2)c1C` [4-(5-{[4-(2,3-dimethylphenyl)piperazin-1-yl]sulfonyl}-2,3-dihydro-1H-indol-1-yl)-4-oxobutanoic acid], for which the IC50 is > 50 µM.

For `CC1CCCCC1NS(=O)(=O)c1ccc(S(=O)(=O)NCc2ccncc2)cc1` (centres undefined) [4-N-(2-methylcyclohexyl)-1-N-(pyridin-4-ylmethyl)benzene-1,4-disulfonamide], the IC50 is > 50 µM.

For `COC(=O)CCC(=O)Oc1ccc(OC(=O)CCC(=O)OC)cc1` [4-O-[4-(4-methoxy-4-oxobutanoyl)oxyphenyl] 1-O-methyl butanedioate], the IC50 was > 50 µM. Consider `CCOC(=O)N1CCC(NC(=O)c2cccn3c(=O)c4cc(Br)ccc4nc23)CC1` [4-[(2-bromo-11-keto-pyrido[2,1-b]quinazoline-6-carbonyl)amino]piperidine-1-carboxylic acid ethyl ester], for which the IC50 is > 50 µM.

For the molecule `O=C(c1n[nH]c(=O)c2ccccc12)N1CCN(C2c3ccccc3-c3ccccc32)CC1` [4-[[4-(9H-fluoren-9-yl)-1-piperazinyl]-oxomethyl]-2H-phthalazin-1-one], the IC50 was > 50 µM. The figure for `Cc1ccc(NC(=O)COC(=O)c2ccc3c(c2)NC(=O)C2CCCN32)cc1C` (centres undefined) [4-keto-2,3,3a,5-tetrahydro-1H-pyrrolo[1,2-a]quinoxaline-7-carboxylic acid [2-(3,4-dimethylanilino)-2-keto-ethyl] ester] is > 50 µM; for `Cc1ccc(S(=O)(=O)NCC(C)NS(=O)(=O)c2ccc(C)cc2)cc1` (centres undefined) [4-methyl-N-[2-(tosylamino)propyl]benzenesulfonamide] it is > 50 µM; for `COC(=O)C1C(C)=NC2=C(C(=O)c3ccccc32)C1c1ccc(-c2ccc(C(=O)O)cc2)o1` (centres undefined) [4-{5-[3-(methoxycarbonyl)-2-methyl-5-oxo-4,5-dihydro-1H-indeno[1,2-b]pyridin-4-yl]-2-furyl}benzoic acid] it is > 50 µM.

Consider `c1ccc(SCc2nc(-c3ccncc3)no2)cc1` [4-{5-[(phenylthio)methyl]-1,2,4-oxadiazol-3-yl}pyridine], for which the IC50 was > 50 µM. Regarding `CC(C)(C)N1C(=O)Cc2c1nc(N)c1c(N)nc(N3CCCCC3CO)c(C#N)c21` (centres undefined) [5,6-bis(azanyl)-3-tert-butyl-8-[2-(hydroxymethyl)piperidin-1-yl]-2-oxidanylidene-1H-pyrrolo[2,3-c][2,7]naphthyridine-9-carbonitrile], the IC50 was > 50 µM.

As to `COc1cc(/C=C(/C#N)c2ccc(F)cc2)ccc1OCc1ccc(C(=O)O)o1` [5-({4-[2-cyano-2-(4-fluorophenyl)vinyl]-2-methoxyphenoxy}methyl)-2-furoic acid], the IC50 was > 50 µM. `COc1ccc(Br)cc1C=c1sc2nc(-c3ccco3)nn2c1=O` [5-[(5-bromanyl-2-methoxy-phenyl)methylidene]-2-(furan-2-yl)-[1,3]thiazolo[3,2-b][1,2,4]triazol-6-one] came in with an IC50 of 4.49 µM. In turn, `CCOc1cc(/C=C(/C#N)c2ccc(F)cc2)ccc1OCc1ccc(C(=O)O)o1` [5-[[4-[(E)-2-cyano-2-(4-fluorophenyl)ethenyl]-2-ethoxyphenoxy]methyl]furan-2-carboxylic acid] showed an IC50 of 36.1 µM. In the case of `N#Cc1c(NC(=O)c2ccc(Br)o2)n(-c2ccccc2)c2nc3ccccc3nc12` [5-bromanyl-N-(3-cyano-1-phenyl-pyrrolo[3,2-b]quinoxalin-2-yl)furan-2-carboxamide] it was 14 µM; in that of `Cc1cccc(N2CCN(C(=O)Cc3c(C(=O)O)[nH]c4ccc(Cl)cc34)CC2)c1C` [5-chloranyl-3-[2-[4-(2,3-dimethylphenyl)piperazin-1-yl]-2-oxidanylidene-ethyl]-1H-indole-2-carboxylic acid], 25.8 µM; in that of `CCCCCNC(=O)c1ccc2c(=O)[nH]c3c(C(=O)NCC4CCCO4)sc(=S)n3c2c1` (centres undefined) [5-oxo-N3-(2-oxolanylmethyl)-N8-pentyl-1-sulfanylidene-4H-thiazolo[3,4-a]quinazoline-3,8-dicarboxamide], 38.4 µM. Take `COc1ccc(-c2cn3c(C)c(C(=O)Nc4cccc(C)n4)sc3n2)cc1` [6-(4-methoxyphenyl)-3-methyl-N-(6-methyl-2-pyridinyl)-2-imidazo[2,1-b]thiazolecarboxamide]: the IC50 is > 50 µM.

As for `Cc1ccc(C)c(-n2nnnc2SCC(=O)c2ccc3c(c2)NC(=O)CO3)c1` [6-[2-[1-(2,5-dimethylphenyl)tetrazol-5-yl]sulfanylacetyl]-4H-1,4-benzoxazin-3-one], the IC50 is > 50 µM.

With `CN1Cc2cc(C(=O)c3cc(Cl)cc(CSc4ncccn4)c3O)cnc2NC1=O` [6-[5-chloranyl-2-oxidanyl-3-(pyrimidin-2-ylsulfanylmethyl)phenyl]carbonyl-3-methyl-1,4-dihydropyrido[2,3-d]pyrimidin-2-one], the IC50 was > 50 µM.
